The values below come from patent US20140366440A1, “METHOD FOR PRODUCING CLONE SEEDLINGS” (OKAYAMA PREFECTURE, priority 2009, published 2014).

One test deals with Tea plant. Put plainly: Rooting of tea plant cuttings, granule oxidized glutathione mixed with composite soil. In kind it is in vivo. The following applies: mix with soil; for Rooting rate (%): 462 test pieces; for Number of rooted shoots: of 462 test pieces. On the procedure: Oxidized glutathione was prepared in such a way that 1% granule oxidized glutathione was mixed with a composite soil was used. Specifically, 1% granule oxidized glutathione of 15 g was mixed with a composite soil of peat moss and vermiculite (5.5 L), and was then put into a seedling pot (3 cm in inner diameter×15 cm in height×66 holes). This seedling pot served as a supporter. A four-diluted MS medium (Composition: ammonium nitrate of 412.5 mg/L, potassium nitrate of 475 mg/L, sodium dihydrogenphosphate of 42.52 mg/L, and potassium iodide of 0.21 mg/L. Note that a carbon source was not added to this medium.) to which IBA serving as a plant hormone of 10 mg/L was added was sprayed from the above the seedling pot by use of a watering can so that the supporter was soaked with the four-diluted MS medium.
Tea plant was used as a material for a cutting. Specifically, a cutting grown to have a length of about 5 cm to 20 cm, about one to three joints, about one to six leaves was cut out from a mother tree, and a tip of each leaf was cut off. In this way, the cutting was adjusted and prepared.
A base of the cutting thus adjusted and prepared was planted to a supporter (66 cuttings were planted per seedling pot). After this planting, the shoot was cultured for one and half months in a carbon dioxide gas concentration of 1000 ppm, a temperature of 25° C., and a humidity of 60% having a wavelength component of 650 nm to 670 nm to a wavelength component of 450 nm to 470 nm at a ratio of 8.2:1.8 under irradiation of red light having photosynthesis photon flux density of 51.3 μmol/m^2/S. After that, the seedling pot was moved to a green house, and was bred for two and half months. In the green house, a high humidity (80% or more) was kept by frequently spraying mist. After two and half month from this moving, a rooting rate was calculated from the number of rooted cuttings.
The culture was carried out in the same way as Example 12, except that an amount of 1% granule oxidized glutathione to be added to a composite soil (5.5 L) was set to 75 g.

The subject of a further test is E. uro-grandis A. Put plainly: Rooting of cuttings, oxidized glutathione solution sprayed to supporter. As to conditions: three weeks. In kind it is in vivo, crossbreed of eucalyptus urophylla and eucalyptus grandis. On the procedure:
A crossbreed of eucalyptus urophylla and eucalyptus grandis (hereinafter, abbreviated as an “E. uro-grandis”) (Line name: A) was used as a material of a cutting. Specifically, a graft grown to have a length of about 5 cm to 20 cm, about one to three joints, and about two to six leaves was cut out from a mother tree, and a tip of each leaf was cut off by cutting off about a half from the tip thereof. In this way, the cutting was prepared.
A composite soil of carbonized chaff, coconut fiber, and vermiculite which had been put into a seedling pot (3 cm in inner diameter×15 cm in height) in advance was used as a supporter. Oxidized glutathione was dissolved in water so that an oxidized glutathione concentration became 50 mg/L. The oxidized glutathione solution was thus prepared. The oxidized glutathione solution was sprayed to the seedling pot from the above by use of a watering can so that the supporter was soaked with the oxidized glutathione solution (50 mg/L) by spraying a spray amount of water of about 8.5 ml of the oxidized glutathione solution per seedling pot. Thereafter, a base of the cutting was planted to the supporter. After this planting, the cutting was bred for three weeks in a green house which shielded sunlight by 50%. In the green house, a high humidity (80% or more) was kept by frequently spraying mist. After three weeks from the planting, a rooting ratio was calculated from the number of rooted cuttings.
A seedling was bred in the same way as Example 4, except that a solution having an oxidized glutathione concentration of 200 mg/L was used as the oxidized glutathione solution.
A seedling was bred in the same way as Example 4, except that a solution having an oxidized glutathione concentration of 500 mg/L was used as the oxidized glutathione solution.
A seedling was bred in the same way as Example 4, except that a solution having an oxidized glutathione concentration of 1000 mg/L was used as the oxidized glutathione solution.

For test [1], the system named is Mango (Mangifera Indica Linn. variety name: Irwin). Put plainly: Rooting of mango cuttings in rooting medium containing oxidized glutathione. The test is classed as in vivo. As to conditions: one and half months. From the text:
A mango (Mangifera Indica Linn. variety name: Irwin) was used as a material of a cutting. Specifically, a cutting including one to three joints and one to five leaves was cut from a branch of a mother tree, and each leaf was partially cut off. Furthermore, the material was wounded by a cutter. The cutting was thus prepared.
The shoot thus obtained was washed with running water over night, and was dipped into an insecticide solution such as “Kotetsu”. Then the shoot had been planted to a supporter infiltrated with a four-diluted MS medium (Composition: ammonium nitrate of 412.5 mg/L, potassium nitrate of 475 mg/L, sodium dihydrogenphosphate of 42.52 mg/L, potassium iodide of 0.21 mg/L, etc. Note that a carbon source other than glutathione was not added to this medium.) to which the oxidized glutathione of 50 mg/L, STS (AgS4O6) of 5 μM serving as a silver ion source, ascorbic acid of 50 mg/L serving an antioxidant, and IBA of 10 mg/L serving as a plant hormone were added. In this case, natural soil such as sand and akadama soil; or a composite soil of vermiculite, perlite, peat moss, etc. was used as the supporter. […]
Ten to twenty shoots were planted per culture container. A rooting rate was calculated from the number of test pieces of the shoot and the number of shoots (the number of rooted shoots) which had been rooted after the foliage was cultured for one and half months.

For the substance oxidized glutathione, the “Rooting rate (%)” value came to 96.0% with Tea plant (Example 12: 3 mg/L in composite soil (15 g of 1% granule per 5.5 L)); 99.6% in the test with Tea plant (Example 13: 15 mg/L in composite soil (75 g of 1% granule per 5.5 L)); 75.0% with E. uro-grandis A (Example 4: 50 mg/L solution, spraying to supporter (about 8.5 ml per pot), 44 test pieces); 77.3% in the test with E. uro-grandis A (Example 5: 200 mg/L, spraying to supporter, 44 test pieces); 84.1% in the test with E. uro-grandis A (Example 6: 500 mg/L, spraying to supporter, 44 test pieces); 72.7% in the test with E. uro-grandis A (Example 7: 1000 mg/L, spraying to supporter, 176 test pieces). Also, in test [1] (Example 11: 50 mg/L, adding glutathione to rooting medium (with STS, ascorbic acid, IBA 10 mg/L), 26 test pieces), the “Rooting rate (%)” value is 26.9%. In addition, the “Number of rooted shoots” value in the test with Tea plant (Example 12: 3 mg/L in composite soil) is recorded as 443; in the test with Tea plant (Example 13: 15 mg/L in composite soil) it was 461; with E. uro-grandis A (Example 4: 50 mg/L, spraying to supporter, of 44 test pieces) it was 33; in the test with E. uro-grandis A (Example 5: 200 mg/L, spraying to supporter, of 44 test pieces) it was 34; in the test on E. uro-grandis A (Example 6: 500 mg/L, spraying to supporter, of 44 test pieces), 37; in the test with E. uro-grandis A (Example 7: 1000 mg/L, spraying to supporter, of 176 test pieces), 128. In addition, the “Number of rooted shoots” value in test [1] (Example 11: 50 mg/L in rooting medium, of 26 test pieces) is 7.
